What was measured:
[1] = biological target: T1, Rat SERT (Rattus norvegicus, UniProt P31652); assay: Rat brain SERT binding ([3H]-citalopram displacement); conditions: rat brain membranes without cerebellum, 0.6 nM [3H]-citalopram, 60 min at 25° C.; read-out: Rat SERT Ki
T1 construct: A rat brain without cerebellum (Zivic Laboratories, Inc.—Pittsburgh, Pa.) was homogenized; tissue Zivic Laboratories, Inc; host or cells: rat brain without cerebellum, membranes
Description: The supernatant was removed and re-centrifuged at 15,000 rpm for 30 min. […] Membranes were incubated with 0.6 nM [^3H]-Citalopram plus/minus test compounds for 60 min at 25° C. and harvested by rapid filtration over GF/C glass fiber filters (pretreated with 0.3% polyethylenimine) followed by four washes with ice-cold buffer.

[2] = biological target: T2, human H3 receptor (Homo sapiens, UniProt Q9Y5N1); assay: H3 receptor binding (N-[3H]-α-methylhistamine displacement); conditions: membranes of SK-N-MC cells expressing cloned human H3 receptor, 0.8 nM N-[3H]-α-methylhistamine, 60 min at 25° C.
T2 construct: expressed in transfected cells
T2 sequence (Q9Y5N1 whole entry): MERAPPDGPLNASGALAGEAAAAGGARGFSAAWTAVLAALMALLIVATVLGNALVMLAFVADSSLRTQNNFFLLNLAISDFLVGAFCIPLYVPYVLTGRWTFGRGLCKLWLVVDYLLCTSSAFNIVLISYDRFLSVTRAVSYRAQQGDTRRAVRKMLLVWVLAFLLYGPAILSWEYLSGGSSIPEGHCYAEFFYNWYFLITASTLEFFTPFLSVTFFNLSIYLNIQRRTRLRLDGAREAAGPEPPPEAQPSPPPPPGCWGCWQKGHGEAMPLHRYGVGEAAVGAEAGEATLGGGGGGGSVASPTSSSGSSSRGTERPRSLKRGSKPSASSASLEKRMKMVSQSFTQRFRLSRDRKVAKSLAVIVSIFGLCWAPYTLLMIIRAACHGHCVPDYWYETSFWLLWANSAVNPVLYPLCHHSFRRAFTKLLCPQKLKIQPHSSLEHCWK

T1 sequence (P31652 whole entry): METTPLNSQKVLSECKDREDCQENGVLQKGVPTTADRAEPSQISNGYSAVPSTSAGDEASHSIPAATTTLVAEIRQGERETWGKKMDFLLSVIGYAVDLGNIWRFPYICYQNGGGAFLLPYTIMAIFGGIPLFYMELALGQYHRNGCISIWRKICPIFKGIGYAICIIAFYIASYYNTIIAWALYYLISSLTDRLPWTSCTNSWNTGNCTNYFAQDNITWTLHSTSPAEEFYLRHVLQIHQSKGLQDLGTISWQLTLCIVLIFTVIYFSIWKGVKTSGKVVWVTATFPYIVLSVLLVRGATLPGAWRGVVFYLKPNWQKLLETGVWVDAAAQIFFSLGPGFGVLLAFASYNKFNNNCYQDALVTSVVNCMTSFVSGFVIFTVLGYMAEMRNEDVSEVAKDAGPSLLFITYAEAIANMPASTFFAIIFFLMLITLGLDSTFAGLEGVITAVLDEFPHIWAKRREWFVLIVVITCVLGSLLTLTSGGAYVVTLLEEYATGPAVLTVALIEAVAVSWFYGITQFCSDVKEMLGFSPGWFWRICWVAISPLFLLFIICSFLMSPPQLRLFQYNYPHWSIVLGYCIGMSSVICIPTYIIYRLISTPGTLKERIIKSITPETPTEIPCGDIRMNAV

CSc1ccc(C2CN(C)Cc3cc(OCCCN4CCC(F)CC4)ccc32)cn1 (stereo not drawn) [Example 187, 7-[3-(4-Fluoro-piperidin-1-yl)-propoxy]-2-methyl-4-(6-methylsulfanyl-pyridin-3-yl)-1,2,3,4-tetrahydro-isoquinoline]
Ki [1]: 3 nM | Ki [2]: 5 nM

CN1Cc2cc(OCCCN3CCC(F)CC3)ccc2C(c2ccc(N(C)C)nc2)C1 (stereo not drawn) [Example 188, (5-{7-[3-(4-Fluoro-piperidin-1-yl)-propoxy]-2-methyl-1,2,3,4-tetrahydro-isoquinolin-4-yl}-pyridin-2-yl)-dimethyl-amine]
Ki [1]: 37 nM | Ki [2]: 22 nM

CN1Cc2cc(OCCCN3CCC(F)CC3)ccc2C(c2ccc(C#C[Si](C)(C)C)nc2)C1 (stereo not drawn) [Example 189, 7-[3-(4-Fluoro-piperidin-1-yl)-propoxy]-2-methyl-4-(6-trimethylsilanylethynyl-pyridin-3-yl)-1,2,3,4-tetrahydro-isoquinoline]
Ki [1]: 108 nM | Ki [2]: 12 nM

C#Cc1ccc(C2CN(C)Cc3cc(OCCCN4CCC(F)CC4)ccc32)cn1 (stereo not drawn) [Example 190, 4-(6-Ethynyl-pyridin-3-yl)-7-[3-(4-fluoro-piperidin-1-yl)-propoxy]-2-methyl-1,2,3,4-tetrahydro-isoquinoline]
Ki [1]: 119 nM | Ki [2]: 29 nM

CN1Cc2cc(OCCCN3CCC(F)CC3)ccc2C(c2ccc(Sc3ccccc3)nc2)C1 (stereo not drawn) [Example 191, 7-[3-(4-Fluoro-piperidin-1-yl)-propoxy]-2-methyl-4-(6-phenylsulfanyl-pyridin-3-yl)-1,2,3,4-tetrahydro-isoquinoline]
Ki [1]: 69 nM | Ki [2]: 26 nM

CN1Cc2cc(OCCCN3CCC(F)CC3)ccc2C(c2ccc(-n3ccnc3)nc2)C1 (stereo not drawn) [Example 192, 7-[3-(4-Fluoro-piperidin-1-yl)-propoxy]-4-(6-imidazol-1-yl-pyridin-3-yl)-2-methyl-1,2,3,4-tetrahydro-isoquinoline]
Ki [1]: 9 nM | Ki [2]: 3 nM

COc1ccc(C2CN(C)Cc3cc(OCCCN4CCC(F)CC4)ccc32)cn1 (stereo not drawn) [Example 193, 7-[3-(4-Fluoro-piperidin-1-yl)-propoxy]-4-(6-methoxy-pyridin-3-yl)-2-methyl-1,2,3,4-tetrahydro-isoquinoline]
Ki [1]: 5 nM | Ki [2]: 3 nM

CN1Cc2cc(OCCCN3CCC(F)CC3)ccc2C(c2ccc(-n3cccn3)nc2)C1 (stereo not drawn) [Example 194, 7-[3-(4-Fluoro-piperidin-1-yl)-propoxy]-2-methyl-4-(6-pyrazol-1-yl-pyridin-3-yl)-1,2,3,4-tetrahydro-isoquinoline]
Ki [1]: 7 nM | Ki [2]: 1 nM

CN1Cc2cc(OCCCN3CCC(F)CC3)ccc2C(c2ccc(Sc3ncccn3)nc2)C1 (stereo not drawn) [Example 196, 7-[3-(4-Fluoro-piperidin-1-yl)-propoxy]-2-methyl-4-[6-(pyrimidin-2-ylsulfanyl)-pyridin-3-yl]-1,2,3,4-tetrahydro-isoquinoline]
Ki [1]: 2000 nM | Ki [2]: 4 nM

COc1ccc(C2CN(C)Cc3cc(OCCCN4CCN(C)CC4)ccc32)cc1 (stereo not drawn) [Example 197, 4-(4-Methoxy-phenyl)-2-methyl-7-[3-(4-methyl-piperazin-1-yl)-propoxy]-1,2,3,4-tetrahydro-isoquinoline]
Ki [1]: 5 nM | Ki [2]: 15 nM

COc1ccc(C2CN(C)Cc3cc(OCCCN4CCN(c5nccs5)CC4)ccc32)cc1 (stereo not drawn) [Example 200, 4-(4-Methoxy-phenyl)-2-methyl-7-[3-(4-thiazol-2-yl-piperazin-1-yl)-propoxy]-1,2,3,4-tetrahydro-isoquinoline]
Ki [1]: 3 nM | Ki [2]: 227 nM

COc1ccc(C2CN(C)Cc3cc(OCCCN4CCN(Cc5cccs5)CC4)ccc32)cc1 (stereo not drawn) [Example 201, 4-(4-Methoxy-phenyl)-2-methyl-7-[3-(4-thiophen-2-ylmethyl-piperazin-1-yl)-propoxy]-1,2,3,4-tetrahydro-isoquinoline]
Ki [1]: 4 nM | Ki [2]: 134 nM

COc1ccc(C2CN(C)Cc3cc(OCCCN4CCN(CCO)CC4)ccc32)cc1 (stereo not drawn) [Example 202, 2-(4-{3-[4-(4-Methoxy-phenyl)-2-methyl-1,2,3,4-tetrahydro-isoquinolin-7-yloxy]-propyl}-piperazin-1-yl)-ethanol]
Ki [1]: 3 nM | Ki [2]: 43 nM

COc1ccc(C2CN(C)Cc3cc(OCCCN4CCN(c5ccccc5O)CC4)ccc32)cc1 (stereo not drawn) [Example 203, 2-(4-{3-[4-(4-Methoxy-phenyl)-2-methyl-1,2,3,4-tetrahydro-isoquinolin-7-yloxy]-propyl}-piperazin-1-yl)-phenol]
Ki [1]: 8 nM | Ki [2]: 504 nM

COc1ccc(C2CN(C)Cc3cc(OCCCN4CCN(c5ccc(C(F)(F)F)cc5)CC4)ccc32)cc1 (stereo not drawn) [Example 205, 4-(4-Methoxy-phenyl)-2-methyl-7-{3-[4-(4-trifluoromethyl-phenyl)-piperazin-1-yl]-propoxy}-1,2,3,4-tetrahydro-isoquinoline]
Ki [1]: 44 nM | Ki [2]: 2000 nM

C=CCN1CCN(CCCOc2ccc3c(c2)CN(C)CC3c2ccc(OC)cc2)CC1 (stereo not drawn) [Example 206, 7-[3-(4-Allyl-piperazin-1-yl)-propoxy]-4-(4-methoxy-phenyl)-2-methyl-1,2,3,4-tetrahydro-isoquinoline]
Ki [1]: 3 nM | Ki [2]: 37 nM

COc1ccc(C2CN(C)Cc3cc(OCCCN4CCN(CC5OCCO5)CC4)ccc32)cc1 (stereo not drawn) [Example 207, 7-[3-(4-[1,3]-Dioxolan-2-ylmethyl-piperazin-1-yl)-propoxy]-4-(4-methoxy-phenyl)-2-methyl-1,2,3,4-tetrahydro-isoquinoline]
Ki [1]: 15 nM | Ki [2]: 78 nM

COc1ccc(C2CN(C)Cc3cc(OCCCN4CCN(c5ccc(C#N)cc5)CC4)ccc32)cc1 (stereo not drawn) [Example 208, 4-(4-{3-[4-(4-Methoxy-phenyl)-2-methyl-1,2,3,4-tetrahydro-isoquinolin-7-yloxy]-propyl}-piperazin-1-yl)-benzonitrile]
Ki [1]: 4 nM | Ki [2]: 137 nM

COCCN1CCN(CCCOc2ccc3c(c2)CN(C)CC3c2ccc(OC)cc2)CC1 (stereo not drawn) [Example 209, 7-{3-[4-(2-Methoxy-ethyl)-piperazin-1-yl]-propoxy}-4-(4-methoxy-phenyl)-2-methyl-1,2,3,4-tetrahydro-isoquinoline]
Ki [1]: 12 nM | Ki [2]: 176 nM

COc1ccc(C2CN(C)Cc3cc(OCCCN4CCN(CC5CCCO5)CC4)ccc32)cc1 (stereo not drawn) [Example 210, 4-(4-Methoxy-phenyl)-2-methyl-7-{3-[4-(tetrahydro-furan-2-ylmethyl)-piperazin-1-yl]-propoxy}-1,2,3,4-tetrahydro-isoquinoline]
Ki [1]: 10 nM | Ki [2]: 99 nM

COc1ccc(C2CN(C)Cc3cc(OCCCN4CCN(C(=O)OC(C)(C)C)CC4)ccc32)cc1 (stereo not drawn) [Example 211, 4-{3-[4-(4-Methoxy-phenyl)-2-methyl-1,2,3,4-tetrahydro-isoquinolin-7-yloxy]-propyl}-piperazine-1-carboxylic acid tert-butyl ester]
Ki [1]: 27 nM | Ki [2]: 823 nM

COc1ccc(C2CN(C)Cc3cc(OCCCN4CCN(C5CC5)CC4)ccc32)cc1 (stereo not drawn) [Example 212, 7-[3-(4-Cyclopropyl-piperazin-1-yl)-propoxy]-4-(4-methoxy-phenyl)-2-methyl-1,2,3,4-tetrahydro-isoquinoline]
Ki [1]: 9 nM | Ki [2]: 43 nM

CN1Cc2cc(OCCCN3CCC(F)CC3)ccc2C(c2ccc(SC(F)(F)F)cc2)C1 (stereo not drawn) [Example 217, 7-[3-(4-Fluoro-piperidin-1-yl)-propoxy]-2-methyl-4-(4-trifluoromethylsulfanyl-phenyl)-1,2,3,4-tetrahydro-isoquinoline]
Ki [1]: 58 nM | Ki [2]: 42 nM

CN1Cc2cc(OCCCN3CCOCC3)ccc2C(c2ccc(SC(F)(F)F)cc2)C1 (stereo not drawn) [Example 218, 2-Methyl-7-(3-morpholin-4-yl-propoxy)-4-(4-trifluoromethylsulfanyl-phenyl)-1,2,3,4-tetrahydro-isoquinoline]
Ki [1]: 36 nM | Ki [2]: 38 nM

C[C@H]1COCCN1CCCOc1ccc2c(c1)CN(C)CC2c1ccc(SC(F)(F)F)cc1 (stereo partly drawn) [Example 219, 2-Methyl-7-[3-(3S-methyl-morpholin-4-yl)-propoxy]-4-(4-trifluoromethylsulfanyl-phenyl)-1,2,3,4-tetrahydro-isoquinoline]
Ki [1]: 39 nM | Ki [2]: 33 nM

COc1ccc(C2CN(C)Cc3cc(OCCCN4CCOC[C@@H]4C)ccc32)cc1F (stereo partly drawn) [Example 221, 4-(3-Fluoro-4-methoxy-phenyl)-2-methyl-7-[3-(3S-methyl-morpholin-4-yl)-propoxy]-1,2,3,4-tetrahydro-isoquinoline]
Ki [1]: 11 nM | Ki [2]: 9 nM

COc1ccc(C2CN(C)Cc3cc(OCCCNC4CCOCC4)ccc32)cc1 (stereo not drawn) [Example 223, {3-[4-(4-Methoxy-phenyl)-2-methyl-1,2,3,4-tetrahydro-isoquinolin-7-yloxy]-propyl}-(tetrahydro-pyran-4-yl)-amine]
Ki [1]: 5 nM | Ki [2]: 59 nM

COc1ccc(C2CN(C)Cc3cc(OCCCN(C4CC4)C4CCN(C)CC4)ccc32)cc1 (stereo not drawn) [Example 224, Cyclopropyl-{3-[4-(4-methoxy-phenyl)-2-methyl-1,2,3,4-tetrahydro-isoquinolin-7-yloxy]-propyl}-(1-methyl-piperidin-4-yl)-amine]
Ki [1]: 32 nM | Ki [2]: 61 nM

COCCNCCCOc1ccc2c(c1)CN(C)CC2c1ccc(OC)cc1 (stereo not drawn) [Example 225, (2-Methoxy-ethyl)-{3-[4-(4-methoxy-phenyl)-2-methyl-1,2,3,4-tetrahydro-isoquinolin-7-yloxy]-propyl}-amine]
Ki [1]: 1 nM | Ki [2]: 46 nM

COc1ccc(C2CN(C)Cc3cc(OCCCNCCCO)ccc32)cc1 (stereo not drawn) [Example 226, 3-{3-[4-(4-Methoxy-phenyl)-2-methyl-1,2,3,4-tetrahydro-isoquinolin-7-yloxy]-propylamino}-propan-1-ol]
Ki [1]: 1 nM | Ki [2]: 107 nM

Source: patent US20060194837A1, “Tetrahydroisoquinoline compounds” (priority 2004, published 2006)
